Laboratory results published in patent publication US20230025280A1, “PH RESPONSIVE COMPOSITIONS, FORMULATIONS, AND METHODS OF IMAGING A TUMOR” (ONCONANO MEDICINE, INC, priority 2019, published 2023).
“And” between values parts separate entries of the source, which are not always exact repeats. Equal values may be shown once. “Also recorded” adds a separate entry of the source.

How the values were obtained:
[1] = tested on: histology-confirmed tumor and normal tissue; assay: Postoperative tissue slice fluorescence imaging (LI-COR Pearl; MFI, CNR, TBR, ROC) correlated with histopathology; type: in vivo, human; conditions: for Ex Vivo Tissue Slice CNR / Ex Vivo Tissue Slice TBR: per patient, LI-COR Pearl
Source text: Timing of postoperative tissue slice imaging was adapted to accommodate the differences in the SOC for specimen processing of the different tumor types. Briefly, BC specimens were sliced fresh on the day of surgery and then formalin fixed, other tumor types were sliced after formalin fixation of the whole resection specimen 1 to 3 days after surgery. Generally, the surgical specimen was serially sliced into ±0.5 cm thick tissue slices. White light photographs were made during and directly after slicing for orientation purposes. After slicing, fluorescence imaging on both sides of each tissue slice was performed in a light-tight environment (LI-COR PEARL® Trilogy system). BC slices were therefore imaged approximately 120 min after excision, other tumor types were sliced and imaged the subsequent day(s) after excision and formalin fixation.
Each BLS underwent overnight formalin fixation in 4% paraformaldehyde/phosphate buffered saline. The pathologist then macroscopically sampled parts of BLS (FFPE embedding) for further analysis according to SOC and preparation of 4 μm slices for hematoxylin and eosin (H/E) staining to delineate tumor tissue for histopathological correlation. Additional FFPE blocks could be embedded based on fluorescence imaging of the BLS additional to the SOC examination by conventional macroscopic visual inspection of the pathologist. A standardized workflow was executed in order to cross-correlate final histopathology results with recorded fluorescence images of tissue slices of interest. FFPE blocks were scanned after 7 to 14 days using the Odyssey Flatbed Scanner (LI-COR Bioscience).
After the SOC pathological procedure was performed (approximately 7-10 days for Phase 1a and 7-14 days for Phase 1b), H/E slices were reviewed and discussed with the dedicated board-certified pathologist for the respective tumor type.
A correlation between HE slices and fluorescence images (i.e., bread loaf slice or BLS) were made using Adobe Illustrator and Fiji (ImageJ). After precisely and manually drawing the region of interest (ROI) containing tumor and background based on the histopathological outcome, a CNR was calculated for each LI-COR PEARL image of a separate BLS for each patient. The median CNR was calculated based on all available BLS containing tumor.
Compound 1 fluorescence images were captured from the postoperative specimens (BLS specimens) prepared at each step of the standard pathology for the purposes of correlating Compound 1 fluorescence with histopathological finding of the tumor and the normal tissue. LI COR PEARL, a laboratory camera with capabilities to standardize imaging and fluorescence quantification, was used to compare fluorescence intensity across multiple specimens.
Intraoperative fluorescence intensity cannot be standardized and compared between patients or dose levels due to the unique presentation of each surgical environment. Multiple variables such as camera angle, camera-tissue distance, tumor location, and coverage by other tissues or fat affect the absolute value of the fluorescence signal. To enable direct comparison of MFI across patients and doses, patient tissue slices were imaged with LI-COR Pearl, the standardizable close field camera, using the standard postoperative workflow for fluorescence.

occult lesions = assay: Detection of occult disease by Compound 1 fluorescence; type: in vivo, human
Source text: During surgery, intraoperative images of Compound 1 fluorescence were obtained from the primary tumors and metastatic lymph nodes as well as the surrounding tissue which include normal noncancerous tissues using NIR camera(s). This may be in vivo and/or ex vivo imaging of resected specimens. If the surgeon considered it safe, up to a maximum of 10 study related biopsies were taken from the regions with Compound 1 fluorescence that were otherwise not suspected as tumor clinically. Feasibility to image tumors with Compound 1 using multiple NIR cameras was evaluated.
Compound 1 fluorescence detected 5 additional occult lesions (1 patient with HNSCC and 4 patients with BC) otherwise missed by SOC preoperative surgery or during surgery or postoperative pathology. In 1 patient with HNSCC (ON1113) who had both a fluorescent and histopathological positive surgical margin, a satellite metastasis that was otherwise undetected by standard-of-care surgery was detected in the wound bed by Compound 1 fluorescence image-guided surgery.

PEO90-140-b-P(DBA60-150-r-ICG0-3-r-AMA0-3) [Compound 1]
Ex Vivo Tissue Slice CNR ([1]; 0.1 mg/kg, HNSCC): 3.5 and 3.2 and 0.9 | Ex Vivo Tissue Slice TBR ([1]; 0.1 mg/kg, HNSCC): 4.5 (2×) and 1.9 | Ex Vivo Tissue Slice CNR ([1]; 0.3 mg/kg, BC): 7.0 and 14.1 and 3.2 | Ex Vivo Tissue Slice TBR ([1]; 0.3 mg/kg, BC): 4.5 and 27.0 and 4.2 | Ex Vivo Tissue Slice CNR ([1]; 0.5 mg/kg, BC): 6.4 | Ex Vivo Tissue Slice TBR ([1]; 0.5 mg/kg, BC): 5.0 | Ex Vivo Tissue Slice CNR ([1]; 0.5 mg/kg, HNSCC): 3.1 and 1.8 | Ex Vivo Tissue Slice TBR ([1]; 0.5 mg/kg, HNSCC): 3.9 and 2.2 | Ex Vivo Tissue Slice CNR ([1]; 0.8 mg/kg, BC): 5.7 and 9.2 | Ex Vivo Tissue Slice TBR ([1]; 0.8 mg/kg, BC): 8.0 and 11.9 | Ex Vivo Tissue Slice CNR ([1]; 0.8 mg/kg, HNSCC): 4.8 | Ex Vivo Tissue Slice TBR ([1]; 0.8 mg/kg, HNSCC): 5.9 | Ex Vivo Tissue Slice CNR ([1]; 1.2 mg/kg, BC): 3.9 and 10.5 and 7.6 and 3.4 | Ex Vivo Tissue Slice TBR ([1]; 1.2 mg/kg, BC): 4.8 and 14.2 and 12.0 and 4.2 | Ex Vivo Tissue Slice CNR ([1]; 1.2 mg/kg, CRC): 12.8 | Ex Vivo Tissue Slice TBR ([1]; 1.2 mg/kg, CRC): 16.9 | Ex Vivo Tissue Slice CNR ([1]; 1.2 mg/kg, EC): 2.9 and 2.1 | Ex Vivo Tissue Slice TBR ([1]; 1.2 mg/kg, EC): 3.4 and 3.2 | Ex Vivo Tissue Slice CNR ([1]; 1.2 mg/kg, HNSCC): 2.4 and 1.9 (2×) and 3.5 (2×) and 2.8 and 4.4 | Ex Vivo Tissue Slice TBR ([1]; 1.2 mg/kg, HNSCC): 2.9 and 2.2 and 5.4 and 3.7 and 2.5 and 6.5 and 5.2 | Patient tumor specimens with postoperative imaging feasibility ([1]; Phase 1a, 0.1 to 1.2 mg/kg): 15 | Tumor MFI compared with non-tumor tissue ([1]; all dose cohorts): significantly higher | Median tumor-to-background ratio (TBR) ([1]; all tissue slices (n=97 from 26 subjects), IQR 3.1): 4.5 | Postoperative fluorescence of tumors ([1]; all tumor types and doses): fluoresced in tissue slices from all the patients and tumor types; also recorded: all tumors irrespective of tumor type or dose were fluorescent | Tumor MFI in relation to dose ([1]; postoperative tissue slices, 0.1 to 1.2 mg/kg): increased with dose | ROC curve AUC ([1]; tissue slices, 1.2 mg per kg dose cohort, n=59): 0.9875 | ROC curve area under the curve ([1]; tissue slices, measurement level, P<0.0001): 0.9726 | TBR ([1]; tissue slices, 1.2 mg/kg, IQR 3.0): 4.5 | Additional occult lesions detected (occult lesions; 1 patient with HNSCC and 4 patients with BC): 5 | Other occult tumors detected by in vivo wound-bed imaging (occult lesions; missed by routine surgery, confirmed by pathology): 2 | Additional satellite lesions and second primaries detected ex vivo (occult lesions; pathology specimens): 3
